Here are results for 26 compounds from patent publication US10590129B2 (Incozen Therapeutics Pvt. Ltd., priority 2010, dated 2020).

Usually inhibition stands for the percentage by which the read-out fell short of the control. Higher therefore signals a response far below the control. What is called melting point is the temperature, or range, at which the solid turns liquid.

Structures are written as SMILES.

The test system of one data set is MKN-45 cells. The data set is described as follows: Inhibition of MKN-45 proliferation (MTT). The class given is cell-based, human. The note with it: for inhibition at 0.1 µM / inhibition at 1 µM: Homo sapiens, MKN-45, MKN-45 proliferation; for inhibition at 0.1 µM / Inhibition (% Inhibition of MKN-45 proliferation): 0.1 μM. A digest of the protocol:
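Viability measured by MTT dye reduction on day 5 after compound addition on day 2 to MKN-45 gastric adenocarcinoma cells (high Met expression) seeded on day 1 in complete medium.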

For the compound `C=CCNC(=O)c1ccc(-c2ccc3nnn(Cc4ccc5ncccc5c4)c3n2)cc1F` [Ex 61, N-Allyl-2-fluoro-4-(3-(quinolin-6-ylmethyl)-3H-[1,2,3]triazolo[4,5-b]pyridin-5-yl) benzamide], the melting point was 162 to 164 °C. Moreover, in the data set with MKN-45 cells, the inhibition at 0.1 µM was 75 to 100%. This compound had an inhibition at 1 µM in the data set on MKN-45 cells (1 μM) of 75 to 100%.
Consider `CONC(=O)c1ccc(-c2ccc3nnn(Cc4ccc5ncccc5c4)c3n2)cc1F` [Ex 62, 2-Fluoro-N-methoxy-4-(3-(quinolin-6-ylmethyl)-3H-[1,2,3]triazolo[4,5-b]pyridin-5-yl)benzamide], for which the melting point lay within 197 to 199 °C. In addition, the “Inhibition (% Inhibition of MKN-45 proliferation)” value with MKN-45 cells (MKN-45 proliferation) was “A (A = ≥75 to 100%)”. Moreover, the “% inhibition @ 1 uM” value in the data set with MKN-45 cells (MKN-45 proliferation, 1 μM) is recorded as “A (A = ≥75 to 100%)”.
As for `CC(=O)Nc1ccc(-c2ccc3nnn(Cc4ccc5ncccc5c4)c3n2)cc1` [Ex 63, N-(4-(3-(quinolin-6-ylmethyl)-3H-[1,2,3]triazolo[4,5-b]pyridin-5-yl)phenyl)acetamide], the melting point fell in the range of 220 to 223 °C. This compound also displayed an inhibition at 0.1 µM with MKN-45 cells of less than 25%. Further, in the data set on MKN-45 cells (1 μM), the inhibition at 1 µM was in the range of 50 to 75%.
With `Nc1ccc(-c2ccc3nnn(Cc4ccc5ncccc5c4)c3n2)cc1` [Ex 64, 4-(3-(quinolin-6-ylmethyl)-3H-[1,2,3]triazolo[4,5-b]pyridin-5-yl)aniline], the melting point was 190 to 193 °C. The compound also returned an inhibition at 1 µM in the data set with MKN-45 cells (1 μM) of 25 to 50%.
In the case of `COc1ccc(-c2ccc3nnn(Cc4ccc5ncccc5c4)c3n2)cc1OC` [Ex 65, 6-((5-(3,4-Dimethoxyphenyl)-3H-[1,2,3]triazolo[4,5-b]pyridin-3-yl)methyl)quinoline], the melting point lay in the range of 149 to 152 °C. The same compound had an inhibition at 0.1 µM in the data set on MKN-45 cells of less than 25%. In the data set with MKN-45 cells (1 μM), the inhibition at 1 µM was less than 25%.
Turning to `COc1ccc(-c2ccc3nnn(Cc4ccc5ncccc5c4)c3n2)cc1F` [Ex 66, 6-((5-(3-Fluoro-4-methoxyphenyl)-3H-[1,2,3]triazolo[4,5-b]pyridin-3-yl)methyl)quinoline], the melting point was 187 to 190 °C. This compound showed an inhibition at 0.1 µM with MKN-45 cells of less than 25%. For the same compound, in the data set with MKN-45 cells (1 μM), the inhibition at 1 µM is 25 to 50%.
For `Fc1ccc(-c2ccc3nnn(Cc4ccc5ncccc5c4)c3n2)cc1` [Ex 67, 6-((5-(4-Fluorophenyl)-3H-[1,2,3]triazolo[4,5-b]pyridin-3-yl)methyl)quinoline], the melting point was in the range of 153 to 156 °C. The compound further yielded an inhibition at 0.1 µM with MKN-45 cells of less than 25%. For the same compound, 1 µM produced 13.8% inhibition in the data set on MKN-45 cells (1 μM, number printed instead of class).
For `Fc1ccccc1-c1ccc2nnn(Cc3ccc4ncccc4c3)c2n1` [Ex 68, 6-((5-(2-Fluorophenyl)-3H-[1,2,3]triazolo[4,5-b]pyridin-3-yl)methyl)quinoline], the melting point is 164 to 166 °C. For the same compound, the inhibition at 0.1 µM with MKN-45 cells is less than 25%. In addition, in the data set on MKN-45 cells (1 μM), the inhibition at 1 µM is less than 25%.
With `CC(=O)Nc1cccc(-c2ccc3nnn(Cc4ccc5ncccc5c4)c3n2)c1` [Ex 69, N-(3-(3-(quinolin-6-ylmethyl)-3H-[1,2,3]triazolo[4,5-b]pyridin-5-yl)phenyl)acetamide], the melting point fell in the range of 198 to 201 °C. Besides, the inhibition at 0.1 µM with MKN-45 cells was less than 25%. In the data set on MKN-45 cells (1 μM), the inhibition at 1 µM was less than 25%.
Take `FC(F)(F)COc1cccc(-c2ccc3nnn(Cc4ccc5ncccc5c4)c3n2)c1` [Ex 70, 6-((5-(3-(2,2,2-Trifluoroethoxy)phenyl)-3H-[1,2,3]triazolo[4,5-b]pyridin-3-yl)methyl)quinoline]: the melting point is 151 to 154 °C. The compound also gave an inhibition at 0.1 µM in the data set with MKN-45 cells of less than 25%. The inhibition at 1 µM with MKN-45 cells (1 μM) is less than 25%.
Take `Nc1cccc(-c2ccc3nnn(Cc4ccc5ncccc5c4)c3n2)c1` [Ex 71, 3-(3-(quinolin-6-ylmethyl)-3H-[1,2,3]triazolo[4,5-b]pyridin-5-yl)aniline]: the melting point was in the range of 187 to 189 °C. In the data set on MKN-45 cells, this compound displayed an inhibition at 0.1 µM of less than 25%. For the same compound, in the data set on MKN-45 cells (1 μM), the inhibition at 1 µM is 25 to 50%.
`CN(C)CCCNC(=O)c1ccc(-c2ccc3nnn(Cc4ccc5ncccc5c4)c3n2)cc1F` [Ex 72, N-(3-(dimethylamino)propyl)-2-fluoro-4-(3-(quinolin-6-ylmethyl)-3H-[1,2,3]triazolo[4,5-b]pyridin-5-yl)benzamide]: the melting point was 148 to 150 °C. The “Inhibition (% Inhibition of MKN-45 proliferation)” value in the data set with MKN-45 cells (MKN-45 proliferation) was “D (D = <25%)”.
`CC(C)Oc1ccc(-c2ccc3nnn(Cc4ccc5ncccc5c4)c3n2)cc1F` [Ex 75, 6-((5-(3-Fluoro-4-isopropoxyphenyl)-3H-[1,2,3]triazolo[4,5-b]pyridin-3-yl)methyl)quinoline] showed a melting point of 128 to 130 °C. Also, the inhibition at 0.1 µM in the data set on MKN-45 cells was less than 25%. This compound had an inhibition at 1 µM with MKN-45 cells (1 μM) of less than 25%.
On to `CN(C)C(=O)CCNC(=O)c1ccc(-c2ccc3nnn(Cc4ccc5ncccc5c4)c3n2)cc1F` [Ex 76, N-(3-(dimethylamino)-3-oxopropyl)-2-fluoro-4-(3-(quinolin-6-ylmethyl)-3H-[1,2,3]triazolo[4,5-b]pyridin-5-yl)benzamide], for which the melting point is 163 to 165 °C. Moreover, the inhibition at 0.1 µM in the data set with MKN-45 cells lay in the range of 75 to 100%. This compound displayed an inhibition at 1 µM in the data set with MKN-45 cells (1 μM) of 50 to 75%.
The matching figures for `CN(C)C(=O)CNC(=O)c1ccc(-c2ccc3nnn(Cc4ccc5ncccc5c4)c3n2)cc1F` [Ex 77, N-(2-(dimethylamino)-2-oxoethyl)-2-fluoro-4-(3-(quinolin-6-ylmethyl)-3H-[1,2,3]triazolo[4,5-b]pyridin-5-yl)benzamide]: 177 to 179 °C, 50 to 75% and 50 to 75%.
Compound `O=C(NCC(=O)N1CCCC1)c1ccc(-c2ccc3nnn(Cc4ccc5ncccc5c4)c3n2)cc1F` [Ex 78, 2-Fluoro-N-(2-oxo-2-(pyrrolidin-1-yl)ethyl)-4-(3-(quinolin-6-ylmethyl)-3H-[1,2,3]triazolo[4,5-b]pyridin-5-yl)benzamide] yielded a melting point of 175 to 177 °C. Moreover, in the data set on MKN-45 cells, the inhibition at 0.1 µM was 50 to 75%. In the data set with MKN-45 cells (1 μM), this compound yielded an inhibition at 1 µM of 50 to 75%.
`Fc1cc(-c2ccc3nnn(Cc4ccc5ncccc5c4)c3n2)ccc1OCC1CC1` [Ex 79, 6-((5-(4-(Cyclopropylmethoxy)-3-fluorophenyl)-3H-[1,2,3]triazolo[4,5-b]pyridin-3-yl)methyl)quinoline] had a melting point of 160 to 162 °C. The compound also had an inhibition at 0.1 µM in the data set with MKN-45 cells of less than 25%. In addition, the inhibition at 1 µM in the data set on MKN-45 cells (1 μM) was 50 to 75%.
The like results for `CC(C)COc1ccc(-c2ccc3nnn(Cc4ccc5ncccc5c4)c3n2)cc1F` [Ex 80, 6-((5-(3-Fluoro-4-isobutoxyphenyl)-3H-[1,2,3]triazolo[4,5-b]pyridin-3-yl)methyl)quinoline] were, in that order, 115 to 157 °C, less than 25% and 25 to 50%.
On to `CN(C)CCCOc1ccc(-c2ccc3nnn(Cc4ccc5ncccc5c4)c3n2)cc1F` [Ex 81, 3-(2-Fluoro-4-(3-(quinolin-6-ylmethyl)-3H-[1,2,3]triazolo[4,5-b]pyridin-5-yl)phenoxy)-N,N-dimethylpropan-1-amine], for which the melting point is 102 to 105 °C. For the same compound, the inhibition at 0.1 µM in the data set with MKN-45 cells lay within 50 to 75%. In the data set on MKN-45 cells (1 μM), the inhibition at 1 µM lay in the range of 75 to 100%.
`Fc1cc(-c2ccc3nnn(Cc4ccc5ncccc5c4)c3n2)ccc1OC1CCOCC1` [Ex 85, 6-((5-(3-Fluoro-4-(tetrahydro-2H-pyran-4-yloxy)phenyl)-3H-[1,2,3]triazolo[4,5-b]pyridin-3-yl)methyl)quinoline] had a melting point of 165 to 167 °C. The same compound came in with an inhibition at 0.1 µM with MKN-45 cells of less than 25%. For the same compound, in the data set with MKN-45 cells (1 μM), the inhibition at 1 µM was 75 to 100%.
Compound `COCCOc1ccc(-c2ccc3nnn(Cc4ccc5ncccc5c4)c3n2)cc1F` [Ex 86, 6-((5-(3-Fluoro-4-(2-methoxyethoxy)phenyl)-3H-[1,2,3]triazolo[4,5-b]pyridin-3-yl)methyl)quinoline] gave a melting point of 122 to 124 °C. This compound also registered an inhibition at 0.1 µM in the data set on MKN-45 cells of less than 25%. Moreover, the inhibition at 1 µM in the data set on MKN-45 cells (1 μM) lay within 75 to 100%.
Regarding `CCCNC(=O)c1ccc(-c2ccc3nnn(Cc4ccc5ncccc5c4)c3n2)cc1F` [Ex 87, 2-Fluoro-N-propyl-4-(3-(quinolin-6-ylmethyl)-3H-[1,2,3]triazolo[4,5-b]pyridin-5-yl)benzamide], the melting point was 157 to 159 °C. This compound returned an inhibition at 0.1 µM in the data set with MKN-45 cells of 75 to 100%. For the same compound, the inhibition at 1 µM in the data set with MKN-45 cells (1 μM) was less than 25%.
Take `Cl.O=C(NC1CC1)c1ccc(-c2ccc3nnn(Cc4ccc5ncccc5c4)c3n2)cc1F` [Ex 89, N-Cyclopropyl-2-fluoro-4-(3-(quinolin-6-ylmethyl)-3H-[1,2,3]triazolo[4,5-b]pyridin-5-yl)benzamide hydrochloride]: the melting point lay in the range of 105 to 107 °C. Besides, the inhibition at 0.1 µM in the data set with MKN-45 cells was in the range of 75 to 100%. Also, in the data set on MKN-45 cells (1 μM), the inhibition at 1 µM is less than 25%.
Compound `O=C(NCC1CC1)c1ccc(-c2ccc3nnn(Cc4ccc5ncccc5c4)c3n2)cc1F` [Ex 90, N-(Cyclopropylmethyl)-2-fluoro-4-(3-(quinolin-6-ylmethyl)-3H-[1,2,3]triazolo[4,5-b]pyridin-5-yl)benzamide] showed a melting point of 120 to 122 °C. The compound also returned an inhibition at 0.1 µM in the data set on MKN-45 cells of 50 to 75%. The same compound displayed an inhibition at 1 µM with MKN-45 cells (1 μM) of 75 to 100%.
Turning to `CCCCNC(=O)c1ccc(-c2ccc3nnn(Cc4ccc5ncccc5c4)c3n2)cc1F` [Ex 91, N-Butyl-2-fluoro-4-(3-(quinolin-6-ylmethyl)-3H-[1,2,3]triazolo[4,5-b]pyridin-5-yl)benzamide], the melting point is 100 to 102 °C. The compound further had an inhibition at 0.1 µM with MKN-45 cells of 25 to 50%. In the data set with MKN-45 cells (1 μM), this compound had an inhibition at 1 µM of 50 to 75%.
For `O=C(NCc1ccco1)c1ccc(-c2ccc3nnn(Cc4ccc5ncccc5c4)c3n2)cc1F` [Ex 92, 2-Fluoro-N-(furan-2-ylmethyl)-4-(3-(quinolin-6-ylmethyl)-3H-[1,2,3]triazolo[4,5-b]pyridin-5-yl)benzamide], the melting point is 144 to 147 °C. The compound further had an inhibition at 1 µM in the data set on MKN-45 cells (1 μM) of less than 25%.
